In general, melting point refers to the temperature, or range, at which the solid turns liquid.

Among the data in patent US7361659B2, “Pyrrazolo-pyrimidine derivatives” (Hoffmann-La Roche Inc., priority 2005, dated 2008) are melting point values, retold here.

Molecule `Cc1nc(NC(=O)c2cnn3c(C(F)(F)F)cc(-c4ccc(C(F)(F)F)c(Cl)c4)nc23)sc1S(=O)(=O)NC(C)(C)CO` [Example 30, 5-(3-Chloro-4-trifluoromethyl-phenyl)-7-trifluoromethyl-pyrazolo[1,5-a]pyrimidine-3-carboxylic acid [5-(2-hydroxy-1,1-dimethyl-ethylsulfamoyl)-4-methyl-thiazol-2-yl]-amide] came in with a melting point of 274 °C.

For `Cc1nc(NC(=O)c2cnn3c(C(F)(F)F)cc(-c4ccc(Cl)c(Cl)c4)nc23)sc1S(=O)(=O)NC(C)(C)CO` [Example 31, 5-(3,4-Dichloro-phenyl)-7-trifluoromethyl-pyrazolo[1,5-a]pyrimidine-3-carboxylic acid [5-(2-hydroxy-1,1-dimethyl-ethylsulfamoyl)-4-methyl-thiazol-2-yl]-amide], the melting point was found to be 265 °C.

`Cc1nc(NC(=O)c2cnn3c(C(F)(F)F)cc(-c4ccc(C(F)(F)F)c(OCC(F)(F)F)c4)nc23)sc1S(=O)(=O)NC(C)(C)CO` [Example 32, 5-[3-(2,2,2-Trifluoro-ethoxy)-4-trifluoromethyl-phenyl]-7-trifluoromethyl-pyrazolo[1,5-a]pyrimidine-3-carboxylic acid [5-(2-hydroxy-1,1-dimethyl-ethylsulfamoyl)-4-methyl-thiazol-2-yl]-amide]: the melting point was 275 °C.

The molecule `Cc1cc(-c2cc(C(F)F)n3ncc(C(=O)Nc4nc(C)c(S(N)(=O)=O)s4)c3n2)ccc1C(F)(F)F` [Example 33, 7-Difluoromethyl-5-(3-methyl-4-trifluoromethyl-phenyl)-pyrazolo[1,5-a]pyrimidine-3-carboxylic acid (4-methyl-5-sulfamoyl-thiazol-2-yl)-amide] returned a melting point of 307 °C.

Regarding `O=C(Nc1cc(S(=O)(=O)N(CCO)CCO)sc1Cl)c1cnn2c(C(F)F)cc(-c3ccc(C(F)(F)F)cc3)nc12` [Example 34, 7-Difluoromethyl-5-(4-trifluoromethyl-phenyl)-pyrazolo[1,5-a]pyrimidine-3-carboxylic acid {5-[bis-(2-hydroxy-ethyl)-sulfamoyl]-2-chloro-thiophen-3-yl}-amide], the melting point stood at 216 °C.

Take `O=C(Nc1cc(S(=O)(=O)NCCO)sc1Cl)c1cnn2c(C(F)(F)F)cc(-c3ccc(C(F)(F)F)cc3)nc12` [Example 36, 7-Trifluoromethyl-5-(4-trifluoromethyl-phenyl)-pyrazolo[1,5-a]pyrimidine-3-carboxylic acid [2-chloro-5-(2-hydroxy-ethylsulfamoyl)-thiophen-3-yl]-amide]: the melting point was found to be 191 °C.

The molecule `CC(CO)(CO)NS(=O)(=O)c1cc(NC(=O)c2cnn3c(C(F)F)cc(-c4ccc(C(F)(F)F)cc4)nc23)c(Cl)s1` [Example 37, 7-Difluoromethyl-5-(4-trifluoromethyl-phenyl)-pyrazolo[1,5-a]pyrimidine-3-carboxylic acid [2-chloro-5-(2-hydroxy-1-hydroxymethyl-1-methyl-ethylsulfamoyl)-thiophen-3-yl]-amide] had a melting point of 237 °C.

Turning to `CC(CO)(CO)NS(=O)(=O)c1cc(NC(=O)c2cnn3c(C(F)(F)F)cc(-c4ccc(C(F)(F)F)cc4)nc23)c(Cl)s1` [Example 38, 7-Trifluoromethyl-5-(4-trifluoromethyl-phenyl)-pyrazolo[1,5-a]pyrimidine-3-carboxylic acid [2-chloro-5-(2-hydroxy-1-hydroxymethyl-1-methyl-ethylsulfamoyl)-thiophen-3-yl]-amide], the melting point is 201 °C.

In the case of `Cc1cc(-c2cc(C(F)F)n3ncc(C(=O)Nc4nc(C)c(S(=O)(=O)NC(C)(C)CO)s4)c3n2)ccc1C(F)(F)F` [Example 39, 7-Difluoromethyl-5-(3-methyl-4-trifluoromethyl-phenyl)-pyrazolo[1,5-a]pyrimidine-3-carboxylic acid [5-(2-hydroxy-1,1-dimethyl-ethylsulfamoyl)-4-methyl-thiazol-2-yl]-amide], the melting point came out at 271 °C.

`Cc1nc(NC(=O)c2cnn3c(C(F)F)cc(-c4ccc(C(F)(F)F)cc4)nc23)sc1S(=O)(=O)N(CCO)CCO` [Example 40, 7-Difluoromethyl-5-(4-trifluoromethyl-phenyl)-pyrazolo[1,5-a]pyrimidine-3-carboxylic acid {5-[bis-(2-hydroxy-ethyl)-sulfamoyl]-4-methyl-thiazol-2-yl}-amide] returned a melting point of 191 °C.

For the molecule `Cc1nc(NC(=O)c2cnn3c(C(F)(F)F)cc(-c4ccc(C(F)(F)F)cc4)nc23)sc1S(=O)(=O)N(CCO)CCO` [Example 41, 7-Trifluoromethyl-5-(4-trifluoromethyl-phenyl)-pyrazolo[1,5-a]pyrimidine-3-carboxylic acid {5-[bis-(2-hydroxy-ethyl)-sulfamoyl]-4-methyl-thiazol-2-yl}-amide], the melting point was 214 °C.

As for `Cc1nc(NC(=O)c2cnn3c(C(F)(F)F)cc(-c4ccc(C(F)(F)F)cc4)nc23)sc1S(=O)(=O)NC(C)(CO)CO` [Example 42, 7-Trifluoromethyl-5-(4-trifluoromethyl-phenyl)-pyrazolo[1,5-a]pyrimidine-3-carboxylic acid [5-(2-hydroxy-1-hydroxymethyl-1-methyl-ethylsulfamoyl)-4-methyl-thiazol-2-yl]-amide], the melting point stood at 250 °C.

Regarding `Cc1nc(NC(=O)c2cnn3c(C(F)F)cc(-c4ccc(C(F)(F)F)cc4)nc23)sc1S(=O)(=O)NC(C)(CO)CO` [Example 43, 7-Difluoromethyl-5-(4-trifluoromethyl-phenyl)-pyrazolo[1,5-a]pyrimidine-3-carboxylic acid [5-(2-hydroxy-1-hydroxymethyl-1-methyl-ethylsulfamoyl)-4-methyl-thiazol-2-yl]-amide], the melting point worked out at 248 °C.

For `O=C(Nc1cc(S(=O)(=O)NCCO)sc1Cl)c1cnn2c(C(F)F)cc(-c3ccc(C(F)(F)F)cc3)nc12` [Example 44, 7-Difluoromethyl-5-(4-trifluoromethyl-phenyl)-pyrazolo[1,5-a]pyrimidine-3-carboxylic acid [2-chloro-5-(2-hydroxy-ethylsulfamoyl)-thiophen-3-yl]-amide], the melting point is 209 °C.

`Cc1nc(NC(=O)c2cnn3c(C(F)F)cc(-c4ccc(C(F)(F)F)cc4)nc23)sc1S(=O)(=O)NCCO` [Example 45, 7-Difluoromethyl-5-(4-trifluoromethyl-phenyl)-pyrazolo[1,5-a]pyrimidine-3-carboxylic acid [5-(2-hydroxy-ethylsulfamoyl)-4-methyl-thiazol-2-yl]-amide] yielded a melting point of 134 °C.

Molecule `Cc1nc(NC(=O)c2cnn3c(C(F)(F)F)cc(-c4ccc(C(F)(F)F)cc4)nc23)sc1S(=O)(=O)NCCO` [Example 46, 7-Trifluoromethyl-5-(4-trifluoromethyl-phenyl)-pyrazolo[1,5-a]pyrimidine-3-carboxylic acid [5-(2-hydroxy-ethylsulfamoyl)-4-methyl-thiazol-2-yl]-amide] had a melting point of 166 °C.

`Cc1sc(S(N)(=O)=O)cc1NC(=O)c1cnn2c(C(F)(F)F)cc(-c3ccc(C(F)(F)F)cc3)nc12` [Example 47, 7-Trifluoromethyl-5-(4-trifluoromethyl-phenyl)-pyrazolo[1,5-a]pyrimidine-3-carboxylic acid (2-methyl-5-sulfamoyl-thiophen-3-yl)-amide] returned a melting point of 297 °C.
